The results in this text go back to patent US9415103B2, “Combination therapy to prevent DCIS formation and progression to breast cancer” (Yeda Research and Development Co. Ltd., priority 2011, dated 2016).

In one assay the test system is MCF10A-HER2 spheroids. As to the kind of experiment: Morphogenesis assay in Matrigel: luminal filling and cleaved Caspase-3 staining by confocal microscopy. The format is cell-based, human. The following applies: spheroids grown 4 days, then 10058-F4 1 μM, FIG. 4G; for luminal filling: LY-294002 2 μM or U0126 1 μM for up to 4 additional days, day 8; for Caspase-3 activation: LY-294002 2 μM or U0126 1 μM, imaged on day 6.

Assay [1] concerns Notch pathway genes in MCF10A-HER2 spheroids. The following applies: U0126 1 μM, up to five days, lumen-filled spheroids; FIG. 2C.

As for `CCc1ccc(/C=C2/SC(=S)NC2=O)cc1` [10058-F4], in the assay on MCF10A-HER2 spheroids, the luminal filling result was “significant inhibition” and the Caspase-3 activation entry was “markedly enhanced”.
With `N#CC(=C(/N)Sc1ccccc1N)/C(C#N)=C(\N)Sc1ccccc1N` [U0126], in the assay with MCF10A-HER2 spheroids, the luminal filling entry is given as “significant inhibition” and the Caspase-3 activation entry is recorded as “markedly enhanced”. Besides, the “transcriptional induction of the Notch pathway (qRT-PCR)” value in assay [1] is “contributes to the transcriptional induction of the Notch pathway”.
